Marks after values point to notes of the source that are not given here.
Columns and labels:
Type in all cases: in vivo, mice
adult mouse neocortex = experiment: Nissl staining and immunohistochemistry (calbindin, calretinin, doublecortin) of adult brain
Method: (§1) As formerly described by[59], mice from each experimental group were anesthetized with 4% of chloral hydrate (10 µL/g of weight) and trans-cardiacally perfused with cold saline. Brains were removed and fixed by immersion for 24 h at 4 °C in 4% paraformaldehyde prepared in phosphate-buffered saline (PBS). Tissue was cryoprotected in 30% sucrose-PBS for 2 days at 4 °C and coronal brain sections (50 µm) were then processed for Nissl staining and free-floating immunohistochemistry. Sections encompassed roughly between 2.80 mm to -2.80 mm from Bregma[60] were selected for Toluidine blue staining and immunohistochemical processing. Brain slices from all animals were processed simultaneously in each assay. Immunohistochemistry assays were performed with free-floating sections and an avidin-biotinylated peroxidase method. Primary antibodies used were calbindin (CB, 1:500, Santa Cruz, sc-365360), calretinin (CR, 1:1000, Santa Cruz, sc-26512) and doublecortin (DCX, 1:500, Santa Cruz, sc-8066). Secondary biotinylated antibodies were used (1:500). […] Several control sections were processed without the primary antibody, showing no signal. To minimize variability, at least 2 sections from each area were analysed per animal on a bright-field DMRB RFY HC microscope (Leica) using a 10X objective. For DCX quantification images were taken using a 20X objective and later a whole image of dentate gyrus was reconstructed using Photoshop tiling function. In each section, the total number of labelled cells per area of tissue was quantified using Image-J software (downloaded as a free software package from the public domain: http://rsb.info.nih.gov/ij/download.html). 6 different animals were processed for each primary antibody and pharmacologic treatment from 10 litters.

[1] = as above
Method: as §1

developing embryos = experiment: Embryo development at E14.5 after daily LCM administration to dams (litters, resorptions, litter size, malformations); settings: for CR length (cm): crown-rump
Method: Thus, we used 10, 40, 80 and 120 mg/kg in mice, which corresponded to 56.7, 227, 454 and 681 mg/day in humans, considering an average weight of human to be 70 kg and that of mice to be 30 gr[52],[55]. Controls were administered the vehicle alone: saline solution 0.9% w/v. […] A total of 32 dams were initially treated daily, two days before mating and until the 14th day post-coitus. […] In the breastfeeding period, females were not under treatment given that a person will bottle feed the baby if they were on medication.
Maternal weights were assessed at the end of the treatment periods. After 14.5 days of gestation (embryonic day14.5, E14.5), blood was extracted from the orbital sinus of the pregnant dams under anaesthesia (70 mg/kg Thiobarbital: Braun Medical S.A. Spain), as described previously[56] and sacrificed by neck dislocation immediately after. Blood samples were centrifuged immediately, and the serum was collected and stored at -80 °C for further chemical analysis.
The E14.5 embryos were collected and fixed in 4% paraformaldehyde for 4 h and then kept at 4 °C in 70% ethanol. The litter size of each dam was recorded, and embryos were assessed for external malformations and photographed on a stereomicroscope (SteREO Discovery V8 + AxioCam Erc8, Zeiss, Oberkochen, Germany). The crown-rump lengths of embryos were measured in the photographs using ImageJ software (downloaded as a free software package from the public domain: http://rsb.info.nih.gov/ij/download.html) and based on the reference points described previously. Embryos were then embedded in paraffin, sectioned at 10, 7 and 5 μm, and stained with Ehrlich Haematoxylin & Eosin (H&E) for histology analysis. Representative sections were selected from at least three embryos for each condition and photographed on an Olympus (Tokyo, Japan) BX-61 photomicroscope.

pups = experiment: Neonatal behavioural tests of Fox's battery (developmental landmarks, locomotion, reflexes); settings: P1 to P13; dams given 40 or 120 mg/kg during gestation
Method: In this part of the study, dams were treated until the day of delivery. After analysing the embryo toxicity data, the treatments were categorized as controls (saline vehicle solution alone), low dose (40 mg/kg) and high dose (120 mg/kg). […] The day of birth was designated as postnatal day (P) P0 and the litter size delivered by each dam was recorded, checking each pup for gross abnormalities. Pups were nursed by their natural dams until weaning and from PD 2, the pups were weighed and neonatal behavioural tests were carried out on 12 control mice, 12 low dose and 10 high dose mice from 7 litters. […]
The animal was placed face up, and the time taken to turn over and adopt a prone position with all four feet on the ground was assessed. […]
A mouse was placed at the edge of the table, with its forepaws and head extending over the edge. The response was scored as positive if the mouse turned around and crawled away at least 45° from the “cliff”. […]
The animal was placed face down on a 30° incline and the latency to turn 180° was recorded. […]
The total number of degrees turned by the pup during a 30 s period was recorded. […] The number of degrees was only scored in terms of completed 90° segments.
The latency of a mouse to walk a distance exceeding its body length on all four legs was measured on a flat surface covered with green paper. […]

[2] = 10 mg/kg LCM daily i.p. to dams
[3] = 40 mg/kg LCM daily i.p. to dams
[4] = 80 mg/kg LCM daily i.p. to dams
[5] = 120 mg/kg LCM daily i.p. to dams
[6] = High doses (80 or 120 mg/kg LCM daily i.p. to dams)
[7] = High doses (80 or 120 mg/kg LCM daily i.p. to dams), mean ± S.E.M., p < 0.05
[8] = Low doses (10 or 40 mg/kg LCM daily i.p. to dams)

COC[C@@H](NC(C)=O)C(=O)NCc1ccccc1 [LCM, R-2-acetamido-N-benzyl-3-methoxypropionamide]
number of CR neurons in PrL cortex (adult mouse neocortex; 40 mg/kg in utero): 10.83 ± 1.12 cells/100 µm² | number of CR neurons in RSA cortex (adult mouse neocortex; 40 mg/kg in utero): 16.18 ± 1.23 cells/100 µm² | number of calbindin (CB) labelled neurons in the amygdala (adult mouse neocortex; 40 mg/kg in utero): 23.28 ± 2.98 cells/100 µm^2 | number of CR neurons in PrL cortex (adult mouse neocortex; 120 mg/kg in utero): 13.03 ± 1.08 cells/100 µm² | number of CR neurons in RSA cortex (adult mouse neocortex; 120 mg/kg in utero): 16.94 ± 0.7 cells/100 µm² | number of calbindin (CB) labelled neurons in the amygdala (adult mouse neocortex; 120 mg/kg in utero): 13 ± 1.8 cells/100 µm^2 | DCX labelling in ventral DG ([1]; 40 mg/kg in utero): 13.46 ± 1.03 cells/100 µm² | DCX labelling in ventral DG ([1]; 120 mg/kg in utero): 9.75 ± 0.85 cells/100 µm² | Emb (no.) (developing embryos; [2]): 117 no. | Lost Litter (no.) (developing embryos; [2]): 0 no. | Malformation (%) (developing embryos; [2]): 4.3% | Resorpt (%) (developing embryos; [2]): 4% | CR length (cm) (developing embryos; [2]): 1.18 cm | Emb (no.) (developing embryos; [3]): 67 no. | Lost Litter (no.) (developing embryos; [3]): 0 no. | Malformation (%) (developing embryos; [3]): 7.4% | Resorpt (%) (developing embryos; [3]): 1.5% | CR length (cm) (developing embryos; [3]): 1.09 cm | Emb (no.) (developing embryos; [4]): 41 no. | Lost Litter (no.) (developing embryos; [4]): 1 no. | Malformation (%) (developing embryos; [4]): 12.2% | Resorpt (%) (developing embryos; [4]): 0% | CR length (cm) (developing embryos; [4]): 1.03 cm | Emb (no.) (developing embryos; [5]): 73 no. | Lost Litter (no.) (developing embryos; [5]): 1 no. | Malformation (%) (developing embryos; [5]): 2.7% | Resorpt (%) (developing embryos; [5]): 2.5% | CR length (cm) (developing embryos; [5]): 1.08 cm | Emb (no.) (developing embryos; [6]): 114 no. | Lost Litter (no.) (developing embryos; [6]): 2 no. | Malformation (%) (developing embryos; [6]): 6.1% | Resorpt (%) (developing embryos; [6]): 1.75% | CR length (cm) (developing embryos; [7]): 1.06 ± 0.08^b cm | Emb/dam (developing embryos; [7]): 9.5 ± 0.4^b | Emb (no.) (developing embryos; [8]): 184 no. | Lost Litter (no.) (developing embryos; [8]): 0 no. | Malformation (%) (developing embryos; [8]): 5.4% | Resorpt (%) (developing embryos; [8]): 3.2% | CR length (cm) (developing embryos; Low doses (10 or 40 mg/kg LCM daily i.p. to dams), mean ± S.E.M.): 1.1 ± 0.1 cm | number of embryos/litter (developing embryos; high doses of LCM (80 or 120 mg/kg), p = 0.02): 9.5 ± 0.4 embryo/litter | number of embryos/litter (developing embryos; low doses of LCM (10 or 40 mg/kg)): 12.2 ± 0.1 embryos/litter | postnatal somatometric development and reflexological analyses (body weight, developmental landmarks, locomotor activity, balance reflexes, suspension test) (pups): dose-dependent delay
